The source of these data is publication PMC3076313 (Bioorganic chemistry, 2010).

Assay [1] deals with T1, semisynthetic p300 HAT (wt p300 HAT) (Homo sapiens, UniProt Q09472).
T1 sequence (Q09472 1287-1663 limits assumed): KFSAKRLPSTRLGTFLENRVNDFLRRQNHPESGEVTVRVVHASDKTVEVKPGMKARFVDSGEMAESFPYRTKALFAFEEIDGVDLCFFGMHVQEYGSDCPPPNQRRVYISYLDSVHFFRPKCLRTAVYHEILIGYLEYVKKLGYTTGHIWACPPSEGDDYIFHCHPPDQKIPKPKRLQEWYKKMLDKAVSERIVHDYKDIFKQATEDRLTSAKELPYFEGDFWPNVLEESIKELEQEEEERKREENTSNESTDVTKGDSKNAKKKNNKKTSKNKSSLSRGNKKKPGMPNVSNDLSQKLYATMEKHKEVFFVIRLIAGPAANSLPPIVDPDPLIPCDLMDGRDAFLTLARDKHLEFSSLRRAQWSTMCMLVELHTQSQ
The following applies: 20 μM acetyl-CoA, 100 μM H4-15 peptide, 7 min pre-incubation, 30°C.

Another assay deals with p300 HAT. The note with it: p300 HAT inhibitor; cited from earlier work.
Assay [2] deals with T2, D1625R/D1628R double mutant of p300 HAT (Homo sapiens, UniProt Q09472, D1625R/D1628R).
T2 sequence (Q09472 1287-1663 D1625R/D1628R limits assumed): T1 sequence (Q09472 1287-1663 limits assumed) with D339R, D342R
Put plainly: p300 HAT radioactive acetyltransferase inhibition assay, double mutant enzyme.

Changes are numbered by the printed parent chain.

Turning to `CC(=O)N[C@@H](CCCCNC(=O)CSCCNC(=O)CCNC(=O)[C@H](O)C(C)(C)COP(=O)(O)OP(=O)(O)OC[C@H]1O[C@@H](n2cnc3c(N)ncnc32)[C@H](O)[C@@H]1OP(=O)(O)O)C(N)=O` [Lys-CoA], the IC50 came out at 0.06 µM in assay [1] and 0.209 ± 0.015 µM in assay [2] (D1625R, D1628R p300 HAT, 20 μM acetyl-CoA, 100 μM H4-15 peptide). Also, the Ki on p300 HAT is 0.02 µM. The “fold weakening of IC50 with D1625R/D1628R p300 HAT compared with wt p300 HAT” value in assay [2] (double mutant vs wt) came out at 3.5 fold.

What is called IC50 is the point on the concentration scale where inhibition reaches its midpoint. For orientation: Ki means the dissociation constant of the complex between target and ligand, obtained from inhibition or displacement.
